In the supplement of paper PMC11061612:

Experiments:
[1] = system: DEL (T-Cell Non-Hodgkin's Lymphoma); test: Bliss excess, mean over the matrix (fraction); higher = more synergy
Method in brief: (§1)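 Cell lines in DMEM/F12 or RPMI with 10% FBS were plated in 1536-well plates, held 24 hours at 37°C, 5% CO2, then given two-drug dose matrices for 72 hours (DMSO typically 0.2%). Viability was read by CellTiter-Glo 2.0 luminescence and scaled as inhibition from 0 (vehicle wells) to 1 (blank wells). Combination Emax is the second-highest inhibition in the matrix; Bliss excess is observed combination effect minus expected EA + EB − EA·EB, EA and EB being single-agent effects.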

[2] = system: DoTc2-4510 (Cervical Carcinoma); test: as above
Method in brief: as §1

[3] = system: Hs-578-T (Breast Carcinoma); test: as above
Method in brief: as §1

[4] = system: KELLY (Neuroblastoma); test: as above
Method in brief: as §1

[5] = system: KURAMOCHI (Ovarian Carcinoma); test: as above
Method in brief: as §1

[6] = system: LB831-BLC (Bladder Carcinoma); test: as above
Method in brief: as §1

[7] = system: LU-135 (Small Cell Lung Carcinoma); test: as above
Method in brief: as §1

[8] = system: ME-1 (Acute Myeloid Leukemia); test: as above
Method in brief: as §1

[9] = system: NB10 (Neuroblastoma); test: as above
Method in brief: as §1

[10] = system: NOS-1 (Osteosarcoma); test: as above
Method in brief: as §1

[11] = system: OVCA420 (Ovarian Carcinoma); test: as above
Method in brief: as §1

[12] = system: RO82-W-1 (Thyroid Gland Carcinoma); test: as above
Method in brief: as §1

[13] = system: T98G (Glioblastoma); test: as above
Method in brief: as §1

[14] = system: CaR-1 (Colorectal Carcinoma); test: combination Emax (second highest fraction inhibited in the dose matrix, 72 h); higher = more inhibition; extreme values may be limits of the assay
Method in brief: as §1

[15] = system: HOS (Osteosarcoma); test: as above
Method in brief: as §1

[16] = system: HT-1376 (Bladder Carcinoma); test: as above
Method in brief: as §1

[17] = system: KYSE-520 (Esophageal Squamous Cell Carcinoma); test: as above
Method in brief: as §1

[18] = system: NCI-H82 (Small Cell Lung Carcinoma); test: as above
Method in brief: as §1

[19] = system: SK-ES-1 (Ewing's Sarcoma); test: as above
Method in brief: as §1

[20] = system: RC-K8 (B-Cell Non-Hodgkin's Lymphoma); test: Bliss excess, mean over the matrix (fraction); higher = more synergy
Method in brief: as §1
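Throughout, for Bliss excess, mean over the matrix: after 72 h of two-drug dosing.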

Row | SMILES | Bliss excess [1] | Bliss excess [2] | Bliss excess [3] | Bliss excess [4] | Bliss excess [5] | Bliss excess [6] | Bliss excess [7] | Bliss excess [8] | Bliss excess [9] | Bliss excess [10] | Bliss excess [11] | Bliss excess [12] | Bliss excess [13] | combination Emax [14] | combination Emax [15] | combination Emax [16] | combination Emax [17] | combination Emax [18] | combination Emax [19] | Bliss excess [20]
1 | COc1cccc(OCCCN)c1-c1cc(Nc2cnc(C#N)cn2)n[nH]1 [Prexasertib] + CN(C)CCCOc1ccc(-c2ccc3ncc4c(c3c2)n(C2CCOCC2)c(=O)n4C)cn1 [AZD0156] (first compound max 1 µM, 7x7, partner max 1 µM) | -0.0201 | -0.0208 | 0.0101 | 0.0113 | -0.0425 | 0.0252 | 0.0508 | -0.0167 | 0.015 | 0.0551 | -0.0279 | -0.0684 | 0.0132 | 0.627 | 0.854 | 0.471 | 0.725 | 1 | 0.948 | 
2 | COc1cccc(OCCCN)c1-c1cc(Nc2cnc(C#N)cn2)n[nH]1 [Prexasertib] + C[C@@H]1COCCN1C2=NC(=NC(=C2)C3(CC3)[S@](=N)(=O)C)C4=C5C=CNC5=NC=C4 [AZD6738] (first compound max 1 µM, 7x7, partner max 10 µM) | 0.001 | -0.0218 | -0.0779 | 0.0187 | -0.0707 | 0.019 | 0.0442 | 0.0637 | -0.0145 | 0.0721 | -0.0214 | 0.005 | 0.0453 | 0.696 | 0.902 | 0.503 | 0.728 | 0.995 | 0.944 | 
3 | COc1cccc(OCCCN)c1-c1cc(Nc2cnc(C#N)cn2)n[nH]1 [Prexasertib] + Cc1cc2ncnn2cc1Nc1ncc2c(n1)n(C1CCOCC1)c(=O)n2C [AZD7648] (first compound max 1 µM, 7x7, partner max 10 µM) | -0.0097 | 0.0159 | -0.0453 | -0.0027 | -0.0628 | -0.0865 | 0.025 | -0.0048 | -0.0407 | 0.0514 | -0.0002 | -0.058 | -0.0566 | 0.67 | 0.826 | 0.571 | 0.728 | 1 | 0.964 | 
4 | COc1cccc(OCCCN)c1-c1cc(Nc2cnc(C#N)cn2)n[nH]1 [Prexasertib] + O=C(c1cc(Cc2n[nH]c(=O)c3ccccc23)ccc1F)N1CCN(C(=O)C2CC2)CC1 [Olaparib] (first compound max 1 µM, 7x7, partner max 10 µM) | 0.0035 | -0.0041 | -0.0324 | -0.0742 | -0.0891 | -0.0175 | -0.0079 | -0.0619 | -0.0272 | 0.0177 | -0.0374 | -0.0731 | -0.134 | 0.638 | 0.854 | 0.479 | 0.548 | 0.925 | 1 | 
5 | COc1cc2c(cc1OCCCCCOc1cc3c(cc1OC)C(=O)N1C=C(C)C[C@H]1C=N3)N=C[C@@H]1CC(C)=CN1C2=O [SG3199] + O=C(c1cc(Cc2n[nH]c(=O)c3ccccc23)ccc1F)N1CCN(C(=O)C2CC2)CC1 [Olaparib] (first compound max 0.001 µM, 7x7, partner max 10 µM) | 0.0108 | -0.0123 | -0.0422 | 0.0142 | -0.0693 | -0.0486 | 0.0232 | -0.013 | -0.0067 | -0.0275 | -0.0268 | -0.0704 | -0.0486 | 0.0995 | 0.105 | 0.121 | 0.133 | 0.323 | 0.917 | 
6 | CCc1c2c(nc3ccc(O)cc13)-c1cc3c(c(=O)n1C2)COC(=O)[C@]3(O)CC [SN-38] + CN(C)CCCOc1ccc(-c2ccc3ncc4c(c3c2)n(C2CCOCC2)c(=O)n4C)cn1 [AZD0156] (first compound max 0.3 µM, 7x7, partner max 1 µM) | 0.117 | 0.0091 | 0.169 | 0.0155 | 0.0421 | 0.0223 | -0.0201 | -0.008 | -0.0533 | -0.0111 | -0.008 | -0.088 | -0.03 | 0.876 | 0.893 | 0.118 | 0.284 | 0.824 | 1 | 
7 | C[C@@H](c1ccc2nccn2c1)n1nnc2ncc(-c3cnn(C)c3)nc21 [Savolitinib] + CN(CC[C@H](CSC1=CC=CC=C1)NC2=C(C=C(C=C2)S(=O)(=O)NC(=O)C3=CC=C(C=C3)N4CCC(CC4)[C@H](C5=CC=CC=C5C6=CC=C(C=C6)Cl)O)S(=O)(=O)C(F)(F)F)CCO [AZD4320] (first compound max 1 µM, 7x7, partner max 1 µM) | -0.0318 |  |  |  |  |  | 0.0057 |  |  | -0.0137 | -0.0691 |  |  |  |  |  | 0.2 |  | 0.758 | -0.0478
